Among the data in patent publication US6855710B2, “Substituted indolines with an inhibitory effect on various kinases and complexes of CDKs” (Boehringer Ingelheim Pharma KG, priority 1998, dated 2005) are melting point values, retold here.

For `CCOC(=O)CCNCc1ccc(N/C(=C2\C(=O)Nc3ccc([N+](=O)[O-])cc32)c2ccccc2)cc1` [Example 241, (Z)-3-{1-[4-(2-ethoxycarbonyl-ethylaminomethyl)-phenylamino]-1-phenyl-methylidene}-5-nitro-2-indolinone], the melting point lay within 129 to 131 °C. The value for `CC(=O)N(C)Cc1ccc(N/C(=C2\C(=O)Nc3ccc([N+](=O)[O-])cc32)c2ccccc2)cc1` [Example 122, (Z)-3-{1-[4-(N-acetyl-N-methyl-aminomethyl)-phenylamino]-1-phenyl-methylidene}-5-nitro-2-indolinone] was 307 °C; that for `CC(=O)NCC(=O)N(C)c1ccc(N/C(=C2\C(=O)Nc3ccccc32)c2ccccc2)cc1` [Example 367, (Z)-3-{1-[4-(N-acetylaminomethylcarbonyl-N-methyl-amino)-phenylamino]-1-phenyl-methylidene}-2-indolinone] was 255 to 256 °C; that for `Cc1ccc(S(=O)(=O)N(CC(=O)N(C)C)c2ccc(N/C(=C3\C(=O)Nc4ccccc43)c3ccccc3)cc2)cc1` [Example 206, (Z)-3-{1-[4-(N-dimethylaminocarbonylmethyl-N-(p-tolylsulphonyl)-amino)-phenylamino]-1-phenyl-methylidene}-2-indolinone] was 223 to 226 °C. Next, `CCC(=O)N(CC(=O)N(C)C)c1ccc(N/C(=C2\C(=O)Nc3ccccc32)c2ccccc2)cc1` [Example 359, (Z)-3-{1-[4-(N-dimethylaminocarbonylmethyl-N-propionyl-amino)-phenylamino]-1-phenyl-methylidene}-2-indolinone]: 274 to 277 °C; `COCCN(C)C(=O)c1ccc(N/C(=C2\C(=O)Nc3ccccc32)c2ccccc2)cc1` [Example 389, (Z)-3-{1-[4-(N-(2-methoxyethyl)-N-methyl-aminocarbonyl)-phenylamino]-1-phenyl-methylidene}-2-indolinone]: 198 to 200 °C; `O=C1Nc2ccccc2/C1=C(/Nc1cccc(NC(=O)C(F)(F)F)c1)c1ccccc1` [Example 33, (Z)-3-[1-(3-trifluoroacetylamino-phenylamino)-1-phenyl-methylidene]-2-indolinone]: 273 to 276 °C.

Take `CNC(=O)CN(c1cccc(N/C(=C2\C(=O)Nc3ccccc32)c2ccc(CN)cc2)c1)S(C)(=O)=O` [Example 418, (Z)-3-{1-[3-(N-methylaminocarbonylmethyl-N-methylsulphonyl-amino)-phenylamino]-1-(4-aminomethyl-phenyl)-methylidene}-2-indolinone]: the melting point amounted to 164 °C. The value for `O=C1Nc2ccc([N+](=O)[O-])cc2/C1=C(/Nc1ccc(CCNCCO)cc1)c1ccccc1` [Example 256, (Z)-3-{1-[4-(2-(2-hydroxyethylamino)-ethyl)-phenylamino]-1-phenyl-methylidene}-5-nitro-2-indolinone] was 236 to 238 °C; that for `O=C1Nc2ccc([N+](=O)[O-])cc2/C1=C(/Nc1ccc(CNc2ncccn2)cc1)c1ccccc1` [Example 271, (Z)-3-{1-[4-(pyrimidin-2-ylaminomethyl)-phenylamino]-1-phenyl-methylidene}-5-nitro-2-indolinone] was 284 to 286 °C. Next, `O=C1Nc2ccc([N+](=O)[O-])cc2/C1=C(/Nc1ccc(CNC2CCCCC2)cc1)c1ccccc1` [Example 278, (Z)-3-{1-[4-(cyclohexylaminomethyl)-phenylamino]-1-phenyl-methylidene}-5-nitro-2-indolinone]: 245 °C. In turn, `CCOC(=O)C1CCN(Cc2ccc(N/C(=C3\C(=O)Nc4ccc([N+](=O)[O-])cc43)c3ccccc3)cc2)CC1` [Example 176, (Z)-3-{1-[4-(4-ethoxycarbonyl-piperidinomethyl)-phenylamino]-1-phenyl-methylidene}-5-nitro-2-indolinone] displayed a melting point of 194 °C. Next, `CCNC(=O)Nc1ccc(N/C(=C2\C(=O)Nc3ccccc32)c2ccccc2)cc1` [Example 45, (Z)-3-[1-(4-ethylaminocarbonylamino-phenylamino)-1-phenyl-methylidene]-2-indolinone]: 264 to 265 °C. Next, `CN(C)CC(=O)NCc1ccc(N/C(=C2\C(=O)Nc3ccccc32)c2ccccc2)cc1` [Example 74, (Z)-3-[1-(4-dimethylaminomethylcarbonylaminomethyl-phenylamino)-1-phenyl-methylidene}-2-indolinone]: 200 to 205 °C; `O=C(CN1CCOCC1)Nc1ccc(N/C(=C2\C(=O)Nc3ccccc32)c2ccccc2)cc1` [Example 43, (Z)-3-[1-(4-morpholinomethylcarbonylamino-phenylamino)-1-phenyl-methylidene]-2-indolinone]: 246 to 248 °C; `CCS(=O)(=O)N(CCN(C)C)c1ccc(N/C(=C2\C(=O)Nc3ccccc32)c2ccccc2)cc1` [Example 307, (Z)-3-{1-[4-(N-(2-dimethylaminoethyl)-N-ethylsulphonyl-amino)-phenylamino]-1-phenyl-methylidene}-2-indolinone]: 245 °C.

`CC(=O)NCc1ccc(/C(Nc2ccc(CCNC(=O)OC(C)(C)C)cc2)=C2/C(=O)Nc3ccc([N+](=O)[O-])cc32)cc1` [Example 157, (Z)-3-{1-[4-(2-tert.butoxycarbonylamino-ethyl)-phenylamino]-1-(4-acetylaminomethyl-phenyl)-methylidene}-5-nitro-2-indolinone]: the melting point is 94 °C (dec.). The value for `CN(C(=O)CN1CCNCC1)c1ccc(N/C(=C2\C(=O)Nc3ccc([N+](=O)[O-])cc32)c2ccccc2)cc1.Cl.Cl` was 246 to 248 °C. The value for `CC(=O)NC(c1ccc(N/C(=C2\C(=O)Nc3ccc([N+](=O)[O-])cc32)c2ccccc2)cc1)N(C)C(=O)OC(C)(C)C` (stereo not drawn) [Example 145, (Z)-3-{1-[4-((N-tert.butoxycarbonyl-N-methyl-amino)-methylcarbonylaminomethyl)-phenylamino]-1-phenyl-methylidene}-5-nitro-2-indolinone] was 225 to 227 °C (dec.); that for `CNCC(=O)NCc1ccc(N/C(=C2\C(=O)Nc3ccc([N+](=O)[O-])cc32)c2ccccc2)cc1.Cl` was 195 to 198 °C. Turning to `O=C1Nc2ccc([N+](=O)[O-])cc2/C1=C(/Nc1ccccc1)c1ccc(CN2C(=O)c3ccccc3C2=O)cc1` [Example 153, (Z)-3-[1-phenylamino-1-(4-phthalimidomethyl-phenyl)-methylidene]-5-nitro-2-indolinone], the melting point was 334 to 336 °C (dec.). Consider `CCOC(=O)CN(C)C(=O)c1cccc(N/C(=C2\C(=O)Nc3ccccc32)c2ccccc2)c1` [Example 25, (Z)-3-{1-[3-(N-ethoxycarbonylmethyl-N-methyl-aminocarbonyl)-phenylamino]-1-phenyl-methylidene}-2-indolinone], for which the melting point fell in the range of 148 to 150 °C. Consider `O=C1Nc2ccc([N+](=O)[O-])cc2/C1=C(/Nc1ccc(CN2CC[S+]([O-])CC2)cc1)c1ccccc1` [Example 230, (Z)-3-{1-[4-((1-oxothiomorpholino)-methyl)-phenylamino]-1-phenyl-methylidene}-5-nitro-2-indolinone], for which the melting point was 289 to 290 °C. With `CCOC(=O)CN(C(C)=O)c1ccc(N/C(=C2\C(=O)Nc3ccccc32)c2ccccc2)cc1` [Example 352, (Z)-3-{1-[4-(N-ethoxycarbonylmethyl-N-acetyl-amino)-phenylamino]-1-phenyl-methylidene}-2-indolinone], the melting point lay in the range of 244 to 247 °C. On to `O=C1Nc2ccccc2/C1=C(/Nc1ccc(C(=O)N2CCCCC2)cc1)c1ccccc1` [Example 387, (Z)-3-{1-[4-(piperidinocarbonyl)-phenylamino]-1-phenyl-methylidene}-2-indolinone], for which the melting point lay within 212 to 214 °C. Consider `O=C1Nc2ccc([N+](=O)[O-])cc2/C1=C(/Nc1ccc(CN2CCS(=O)(=O)CC2)cc1)c1ccccc1` [Example 231, (Z)-3-{1-[4-((1,1-dioxothiomorpholino)-methyl)-phenylamino]-1-phenyl-methylidene}-5-nitro-2-indolinone], for which the melting point was 328 to 329 °C (dec.). For the compound `NC(=O)c1ccc(N/C(=C2\C(=O)Nc3ccccc32)c2ccccc2)cc1` [Example 20, (Z)-3-[1-(4-aminocarbonyl-phenylamino)-1-phenyl-methylidene]-2-indolinone], the melting point lay in the range of 321 to 323 °C.

`CCN(CC)CC(=O)Nc1ccc(N/C(=C2\C(=O)Nc3ccc([N+](=O)[O-])cc32)c2ccccc2)cc1.Cl` gave a melting point of 287 to 288 °C. Take `CC(=O)NCc1ccc(/C(Nc2ccc(CNC(=O)OC(C)(C)C)cc2)=C2/C(=O)Nc3ccc([N+](=O)[O-])cc32)cc1` [Example 150, (Z)-3-[1-(4-tert.butoxycarbonylaminomethyl-phenylamino)-1-(4-acetylaminomethyl-phenyl)-methylidene]-5-nitro-2-indolinone]: the melting point was 234 °C (dec.). The value for `O=C1Nc2ccc([N+](=O)[O-])cc2/C1=C(/Nc1ccc(CNc2ccccc2)cc1)c1ccccc1` [Example 233, (Z)-3-{1-[4-(phenylaminomethyl)-phenylamino]-1-phenyl-methylidene}-5-nitro-2-indolinone] was 274 to 277 °C. Compound `Cl.NCC(=O)NCc1cccc(N/C(=C2\C(=O)Nc3ccc([N+](=O)[O-])cc32)c2ccccc2)c1` yielded a melting point of 309 °C. Next, `O=C1Nc2ccccc2/C1=C(/Nc1ccc(S(=O)(=O)N2CCCC2)cc1)c1ccccc1` [Example 397, (Z)-3-{1-[4-(pyrrolidin-1-ylsulphonyl)-phenylamino]-1-phenyl-methylidene}-2-indolinone]: 293 to 294 °C; `CC(=O)N1C(=O)/C(=C(\Nc2ccc(CNC(=O)OC(C)(C)C)cc2)c2ccc(CN3C(=O)c4ccccc4C3=O)cc2)c2cc([N+](=O)[O-])ccc21` [Example 146, (Z)-3-[1-(4-tert.butoxycarbonylaminomethyl-phenylamino)-1-(4-phthalimidomethyl-phenyl)-methylidene]-1-acetyl-5-nitro-2-indolinone]: 125 °C (dec.).

For orientation: melting point means the temperature, or range, at which the solid turns liquid.
